Measurements as given in patent publication US20090156477A1, “Compositions and Methods for Regulating Inflammatory Responses” (Massachusetts Institute of Technology, priority 2005, published 2009).
“Also recorded” adds a separate entry of the source.

How the values were obtained:
Caco-2 cells [1] = test: Transepithelial resistance (TER) of Caco-2 monolayers; type: cell-based, human
Method: (§1) Caco-2 cells were grown close to confluence, and T84 cells were grown to confluence. The apical chambers of transwell plates with 6.5 mm diameter and 3 μm pore size filters were pretreated with 50 μl of 45 μg/ml collagen IV in 60% ethanol 24 hours prior to plating and incubated overnight at room temperature. After reaching confluence, cells were washed with 20 ml PBS and treated with 3.5 ml trypsin-EDTA per 175 cm^2 flask for 20-60 min at 37° C. until cells detached. Cells were resuspended in 16.5 ml media appropriate to the cell type. Each apical chamber was supplemented with 82 μl cell solution. The basolateral chamber was filled with 1 ml propagation media. Filters were fed with new media every two days over the course of experiments.
(§2) Caco-2 and T84 cells were allowed to grow on transwells to form monolayers. Monolayer formation was examined every other day by light microscopy as well as by transepithelial resistance (TER) measurements using an EVOM ohmmeter (World Precision Instruments, Sarasota, Fla.). After monolayer formation, cells were treated with 100 ng/ml FGF1, 100 ng/ml FGF2, 100 ng/ml FGF7 or an equivalent volume (10 μl) of PBS. TER measurements were made either after 72 hours or at each of the 30 minutes, 1 hour, 2 hours, 4 hours, 9 hours, 24 hours and 48 hours timepoints. To determine the effects of multiple additions of ligand, FGFs or PBS were added initially and again after 2 days, and TER measurements were made after 0, 2 and 5 days.
(§3) To probe the mechanism by which various FGFs induced cell mediated effects, various media treatments were employed. Ammonium tetrathiomolybdate (TM) was added 24 hours prior to the addition of ligands to yield a final concentration of 200 μM, sufficient to prevent the release of FGF1 [3]. Similarly, sodium chlorate, which reduces cell HSPGs and the sulfation of associated HSGAGs, was added 24 hours prior to the addition of ligands to yield a final concentration of 50 mM [33,34]. Antibodies and kinase inhibitors were added immediately prior to ligands. Antibodies to FGF1, FGFR1 and FGFR3 were added at a 1:100 dilution. Kinase inhibitors were added to yield final concentrations of 50 μM LY294002, 20 μM PD98059, 1 μM SB203580. All experiments were performed in triplicate.
Caco-2 cells were grown to just prior to confluency. The apical chambers of transwell plates with 6.5 mm diameter and 3 μm pore size filters were pretreated with 50 μl of 45 μg/ml mouse recombinant collagen IV (BD Biosciences, Bedford, Mass.) in 60% ethanol 24 hours prior to plating. Plates were incubated overnight at room temperature. Just prior to confluency, cells were washed with 20 ml phosphate buffered saline (PBS) and treated with 3.5 ml trypsin-EDTA per 175 cm^2 flask for 20-60 min at 37° C., until cells detached. Cells were resuspended in 16.5 ml media appropriate to the cell type. Each apical chamber was supplemented with 82 μl cell solution. The basolateral chamber was filled with 1 ml propagation media. Filters were fed with new media every two days over the course of experiments.
Caco-2 cells were allowed to grow on transwells to form monolayers. Monolayer formation was examined every other day by light microscopy as well as by TER measurements using an EVOM ohmmeter (World Precision Instruments, Sarasota, Fla.). After monolayer formation, cells were treated with 100 ng/ml recombinant human FGF1 (Amgen, Thousand Oaks, Calif.), 100 ng/ml recombinant human FGF2 [1], 100 ng/ml recombinant human FGF7 (Sigma, St. Louis, Mo.), or an equivalent volume (10 μl) of PBS. TER measurements were made after each of 30 minutes, 1 hour, 2 hours, 4 hours, 9 hours, 24 hours and 48 hours.
To probe the mechanism by which various FGFs induced cellular mediated effects, various media treatments were employed. TM was added 24 hours prior to the addition of ligands to yield a final concentration of 200 μM, sufficient to prevent the release of FGF1 [3]. […]

T84 cells [2] = test: Transepithelial resistance (TER) of T84 monolayers; type: cell-based, human; details: agent given before or with 100 ng/ml FGFs (TM 200 μM, sodium chlorate 50 mM, LY294002 50 μM, antibodies 1:100)
Method: as §1, §2, §3

T84 cells [3] = test: T84 proliferation assay (whole cell number); type: cell-based, human; details: TM 200 μM, FGF1 added to TM treated cells
Method: (§4) Caco-2 cells were grown to just prior to confluence, and T84 cells were grown to confluence. Each flask was washed with 20 ml PBS and treated with 3 ml trypsin-EDTA at 37° C. for 20-60 minutes until cells detached. Cells were centrifuged for 3 minutes at 195×g. The supernatant was aspirated, and the cells were resuspended in 10 ml media. The cell density was measured using an electronic cell counter, and the suspension was diluted to 50,000 cells/ml. The suspension was plated at 1 ml/well into 12-well tissue culture plates. After a 24 hour incubation in a 5% CO2, 37° C. humidified incubator, the media was aspirated, the wells were washed with serum free media, and the cells were supplemented with media containing 0.1% FBS. The wells were then supplemented with 10 μl PBS, 50 mM sodium chlorate, or 200 μM TM, and incubated for 24 hours. Subsequently, cells were supplemented with 100 ng/ml FGF1, FGF2, FGF7, or 10 μl PBS, and incubated for 72 hours. Wells were then washed twice with PBS and treated with 0.5 ml trypsin-EDTA/well and incubated at 37° C. until cells detached. Whole cell number was determined using an electronic cell counter. Data was averaged over three experiments, each consisting of four wells per condition.

FGF1 [4] = test: Immunohistochemistry for FGF1 in T84 cells; type: cell-based, human; details: 200 μM TM for 24 hours
Method: (§5) To determine FGFR and FGF1 expression, Caco-2 cells were grown to just prior to confluence, and T84 cells were grown to confluence on collagen-coated glass slides. Cells were washed with PBS supplemented with 5% BSA. To stain for FGFR3, rabbit anti-human FGFR3 antibodies were added to cells at a 1:500 dilution and incubated for 1 hour. Cells were washed with PBS supplemented with 5% BSA, and FITC-conjugated goat anti-rabbit antibodies were added and incubated for 30 minutes. Cells were washed with BSA-PBS and examined using fluorescence microscopy. For FGF1 analysis, cells were treated with 200 μM TM or 10 μl PBS for 24 hours, formalin fixed, treated with goat anti-human FGF1 antibodies at a 1:200 dilution and incubated for 4 hours. Cells were washed with PBS supplemented with 5% BSA, and Texas red-conjugated donkey anti-goat antibodies were added and incubated for 1 hour. Cells were washed with BSA-PBS and examined using fluorescence microscopy.

FGF1 [5] = test: Immunohistochemistry for FGF1 in Caco-2 cells; type: cell-based, human; details: 200 μM TM for 24 hours
Method: as §5

Caco-2 cells [6] = test: Caco-2 proliferation assay (whole cell number); type: cell-based, human; details: TM 200 μM, FGF1 added to TM treated cells
Method: as §4

[7] = target: FGFR3b expressed by Caco-2 and T84 cells (human) (UniProt P22607); test: cell-based or functional assay
[8] = cell line not stated (Caco-2 and T84 cells studied), PD98059 20 μM, SB203580 1 μM, LY294002 50 μM, antibodies 1:100
[9] = Caco-2 cells, agent given before or with 100 ng/ml FGFs (TM 200 μM, sodium chlorate 50 mM, LY294002 50 μM, PMA 100 ng/ml, antibodies 1:100)

Sequence of UniProt P22607 (P22607 23-806): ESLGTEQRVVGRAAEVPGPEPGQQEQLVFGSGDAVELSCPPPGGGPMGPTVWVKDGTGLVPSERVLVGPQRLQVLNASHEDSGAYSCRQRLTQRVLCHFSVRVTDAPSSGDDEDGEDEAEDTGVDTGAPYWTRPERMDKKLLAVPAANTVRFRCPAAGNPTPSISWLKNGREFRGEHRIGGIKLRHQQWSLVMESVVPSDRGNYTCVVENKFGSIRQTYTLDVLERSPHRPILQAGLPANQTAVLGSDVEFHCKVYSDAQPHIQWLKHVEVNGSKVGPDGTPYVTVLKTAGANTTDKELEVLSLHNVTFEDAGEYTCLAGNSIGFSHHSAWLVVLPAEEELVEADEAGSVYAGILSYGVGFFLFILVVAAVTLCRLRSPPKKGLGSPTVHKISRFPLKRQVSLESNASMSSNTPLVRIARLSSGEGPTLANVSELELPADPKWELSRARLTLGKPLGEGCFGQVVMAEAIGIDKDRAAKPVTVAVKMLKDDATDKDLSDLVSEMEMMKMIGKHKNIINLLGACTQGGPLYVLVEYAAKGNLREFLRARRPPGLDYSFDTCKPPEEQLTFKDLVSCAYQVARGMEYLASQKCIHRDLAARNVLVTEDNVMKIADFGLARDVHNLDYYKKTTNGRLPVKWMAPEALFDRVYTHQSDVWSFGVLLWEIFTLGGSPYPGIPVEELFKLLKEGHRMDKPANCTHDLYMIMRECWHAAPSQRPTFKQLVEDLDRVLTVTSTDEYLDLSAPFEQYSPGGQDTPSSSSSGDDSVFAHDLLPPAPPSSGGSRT

Question: `COc1cccc(-c2cc(=O)c3ccccc3o2)c1N` [PD98059, reference compound] was tested. Which “effect of added agent on FGF-induced reduction in TER” value (Caco-2 cells [1]; [8]) did it give?
Answer: failed to eliminate the ligand mediated inhibition of TER

Question: Which “effect of added agent on FGF-induced reduction in TER” value (Caco-2 cells [1]; [9]) does the source give for `CCCCCCCCCCCCCC(=O)O[C@@H]1[C@@H](C)[C@@]2(O)[C@@H](C=C(CO)C[C@]3(O)C(=O)C(C)=C[C@@H]23)[C@@H]2C(C)(C)[C@]12OC(C)=O` [PMA, phorbol 12-myristate 13-acetate, reference compound] here?
Answer: prevented FGF2 and FGF7 activity, but not that of FGF1

Question: `C[S+]([O-])c1ccc(-c2nc(-c3ccncc3)c(-c3ccc(F)cc3)[nH]2)cc1` (stereo not shown) [SB203580, reference compound] was tested. Which “effect of added agent on FGF-induced reduction in TER” value (Caco-2 cells [1]; [8]) did it give?
Answer: failed to eliminate the ligand mediated inhibition of TER

Question: Which results are given for `[Na+].[O-][Cl+2]([O-])[O-]` [Sodium chlorate, sodium chlorate, reference compound]?
Answer: effect of added agent on FGF-induced reduction in TER (Caco-2 cells [1]; [9]): eliminated the ability; also recorded: abrogated the ability; effect of added agent on FGF-induced reduction in TER (T84 cells [2]): eliminated the ability

Question: Which “effect of added agent on proliferative effect of FGF2 and FGF7” value (T84 cells [3]) does the source give for `[NH4+].[NH4+].[SH-].[SH-].[S]=[Mo]=[S]` [TM, Ammonium tetrathiomolybdate, reference compound] here?
Answer: eliminated the proliferative effect of FGF2 and FGF7

Question: And the “effect of added agent on FGF-induced reduction in TER” value (Caco-2 cells [1]; [9])?
Answer: abrogated the reduction in TER induced by FGF2

Question: What about the “distribution of FGF1” value (FGF1 [4]) of the same compound?
Answer: retaining FGF1 closer to the nucleus

Question: What about the “distribution of FGF1” value (FGF1 [5]) of the same compound?
Answer: retaining FGF1 closer to the nucleus

Question: And the “effect of added agent on FGF-induced reduction in TER” value (T84 cells [2])?
Answer: prevented

Question: What about the “effect of added agent on proliferative effect of FGF2 and FGF7” value (Caco-2 cells [6]) of the same compound?
Answer: eliminated the proliferative effect of FGF2 and FGF7

Question: Which “reduction of TER (in words)” value (Caco-2 cells [1]; cell line not stated (Caco-2 and T84 cells studied)) does the source give for “Boiled FGF1: FGF1 that was boiled, used as control in the TER test” here?
Answer: did not reduce TER

Question: For “Recombinant human FGF1 (from UniProt P05230 16-155) (ligand)”, which inhibition of increases in TER over three days, Caco-2 cells [7] is on record?
Answer: 35.1%

Question: What about the inhibition of increases in TER over three days, T84 cells [7] of the same compound?
Answer: 30.1%

Question: What about the reduction of TER at 48 hours, Caco-2 cells [7] of the same compound?
Answer: 45.1%

Question: And the reduction of TER at 48 hours, T84 cells [7]?
Answer: 22.7%
